Assay [1] deals with Anti-CLA(IgG) coupled to Sepharose beads. The experiment in a line: Immunobead assay (IBA). Type of assay: binding, rabbit. The conditions noted are these: 2 h. The method, then:
Sepharose 4B or Sepharose-CL-2B (Pharmacia, Uppsala, Sweden) were washed with water on a porous glass filter and then squeezed out with a soft press from excess moisture. The washed beads (2 g) were placed in a vial with sodium periodate solution (60 mg in 5 mL H2O) and mixed with a rotary mixer (ELMI Ltd. laboratory equipment, Riga, Latvia) for 45 min. An additional 30 min rotation continued after the addition of ethylene glycol (250 µL). The beads were then washed with water and finally with CBB (pH 9.6) squeezed mildly out. Each of the activated sorbents was placed in a vial for mixing with anti-cmoCLA IgG (10 mg) in 2 mL CBB (pH 9.6) for 48 h at 4 °C. The excess antibody was squeezed out. The beads were then washed with water and placed in a sodium borohydride solution (4 mg/4 mL) for 1 h with occasional shaking. After the final washing with water and PSBT, the resulting immune sorbents were stored at 4 °C in 10 mL of PSBT preserved with Merthiolate (1 mg).
To implement these assay formats, the IgG fraction was first isolated from antiserum via the double precipitation method using caprylic acid and ammonium sulfate, described in detail in [22]. The principle of the assays is based on competition between analyte and enzyme-labeled antigen (HRP-aecAZI) for binding to an antibody coated on the plate (dcELISA) or coupled covalently to Sepharose beads. The latter immunosorbent was used in the immunobeads assay (IBA) and immunofiltration assay (IFA).
Immunobead assay (IBA). Standard solution of analyte or tested sample in 1–2 mL PBST were accomplished with HRP-aecAZI and immunosorbents Anti-CLA(IgG)-S4B or Anti-CLA(IgG)-SCL2B taken in optimized concentration/volume and incubated for 0.5–3 h periods at a rotary mixer mixing (15 rpm). The beads were then pelleted using centrifugation (5 min, 3400× g) and suspended to the original volume with PBST. After three washing cycles, the bead pellet was suspended with TMB-substrate mixture (200 μL), and 8 M sulfuric acid (50 μL) was added 30 min later to terminate enzymatic reaction. The intensity of the colored product was measured using a plate reader at 450 nm.

The test system of assay [2] is antibody to immunogen BSA-cmoCLA(ae). The arrangement: method as in PMID 32693204. Particulars: breast milk; CLA = 100; cited from earlier work.
For assay [3], the system named is antibody, immunogen Commercial. The arrangement: method as in PMID 26497839. The conditions noted are these: milk; cited from earlier work.
In assay [4] the test system is anti-BSA-cmoCLA(ae) antibodies. The experiment in a line: Indirect competitive ELISA (icELISA), variants by coating antigen. The conditions noted are these: for CR: CLA = 100. It counts as binding, rabbit. The method, then:
In present work, we investigated and compared several new-designed and previously established coating antigens, which were adsorbed on the 96-well Costar plates from 0.1 to 3.0 µg/mL solutions in CBB (pH 9.6) overnight at 4 °C. […] Solutions of these analytes (1 pg/mL–1 μg/mL) were added to wells of the plate along with anti-cmoCLA antibody in PBS-T with 1%BSA and incubated for 1 h at 25 °C in plate-shaker ST-3 L (ELMI Ltd. laboratory equipment, Riga, Latvia). GAR-HRP was used to detect antigen-antibody formed complexes for 1 h at 37 °C. The activity of the bound enzyme was detected using TMB-substrate mixture, and the intensity of colored product was read at 450 nm using a LisaScan spectrophotometer (Erba Mannheim, Czech Republic). […] The relative antibody-binding absorbance (B/B0) was determined for each concentration of analyte and used to construct a calibration curve as B/B0 versus the concentration. Structurally related macrolides CLA, ESE, ROX, AZI, DIR, TUL, and OLE were analyzed for their cross-reactions. […] Assay sensitivity, limit of detection (LOD), and working range of the assay were set as values of IC50, IC10, and IC20-IC80 range, respectively.
(In general: An ELISA detects its analyte on a solid surface through an enzyme-linked reagent.)

Setting [5] is: Ab volume 10 µL, standard/sample 1000 µL.
The mark [6] stands for this setting: Ab volume 20 µL, standard/sample 2000 µL.
The mark [7] stands for this setting: coating antigen OVA-aecAZI(dma).

The source of these data is publication PMC10605010, “Immunotechniques for the Group Determination of Macrolide Antibiotics Traces in the Environment Using a Volume-Mediated Sensitivity Enhancement Strategy” (Biosensors, 2023).

Values after ≈ are worked out from the molar mass of the structure shown.

As a reminder, the IC50 is the concentration at which inhibition is half-maximal. A low value points to greater potency in that assay. For the compound `CC[C@H]1OC(=O)[C@H](C)[C@@H](O[C@H]2C[C@@](C)(OC)[C@@H](O)[C@H](C)O2)[C@H](C)[C@@H](O[C@@H]2O[C@H](C)C[C@H](N(C)C)[C@H]2O)[C@](C)(O)C[C@@H](C)C(=O)[C@H](C)[C@@H](O)[C@]1(C)O` [ERY, Erythromycin], the “IC10 (LOD)” value was found to be 0.003 ng/mL (≈ 0.00409 nM) in assay [1] (setting [5]) and 0.001 ng/mL (≈ 0.00136 nM) in assay [1] (setting [6]). In addition, the “IC20-IC80 (working range)” value in assay [1] (setting [5]) lay within 0.006 to 0.056 ng/mL; in assay [1] (setting [6]), 0.003 to 0.057 ng/mL. Moreover, the IC50 in assay [1] (setting [5]) came to 0.018 ng/mL (≈ 0.0245 nM); in assay [1] (setting [6]) it was 0.012 ng/mL (≈ 0.0164 nM); in assay [4] (coating antigen OVA(pi)-aecAZI), 0.042 ng/mL (≈ 0.0572 nM); in assay [4] (setting [7]), 0.223 ng/mL (≈ 0.304 nM); in assay [4] (coating antigen OVA-aecAZI(ga)), 0.049 ng/mL (≈ 0.0668 nM); in assay [4] (coating antigen OVA-cmoERY(ae)), 0.240 ng/mL (≈ 0.327 nM). For the same compound, the CR is 7.5% in assay [2]; 100% in assay [3]; 105% in assay [4] (coating antigen OVA(pi)-aecAZI); 70.4% in assay [4] (setting [7]); 87.8% in assay [4] (coating antigen OVA-aecAZI(ga)); 71.7% in assay [4] (coating antigen OVA-cmoERY(ae)). Further, the LOD entry in assay [3] was “ni//0.13 ng/mL”; in assay [4] (coating antigen OVA(pi)-aecAZI, water), 0.01 ng/mL.
